From paper PMC8952009 (Pharmaceuticals, 2022)
“Also recorded” adds a separate entry of the source.

Key:
SARS-CoV-2 M^pro = target: T1, SARS-CoV-2 M^pro (Severe acute respiratory syndrome coronavirus 2, UniProt P0DTD1); assay: biochemical; settings: for inhibition at 100 µM: read-out: Inhibition of enzymatic activity
T1 construct: This main protease is located in nsp5; purchased AnaSpec

SARS-CoV-1 M^pro = SARS-CoV-1 M^pro (Severe acute respiratory syndrome coronavirus, UniProt P0C6X7); assay: biochemical; settings: for inhibition at 100 µM: read-out: Inhibition of enzymatic activity
MERS-CoV M^pro = MERS-CoV M^pro (Middle East respiratory syndrome-related coronavirus, UniProt K9N7C7); assay: biochemical; settings: for inhibition at 100 µM: read-out: MERS-CoV M^pro activity inhibited to
MERS-CoV M^pro, sequence (K9N7C7 3248-3553 limits assumed): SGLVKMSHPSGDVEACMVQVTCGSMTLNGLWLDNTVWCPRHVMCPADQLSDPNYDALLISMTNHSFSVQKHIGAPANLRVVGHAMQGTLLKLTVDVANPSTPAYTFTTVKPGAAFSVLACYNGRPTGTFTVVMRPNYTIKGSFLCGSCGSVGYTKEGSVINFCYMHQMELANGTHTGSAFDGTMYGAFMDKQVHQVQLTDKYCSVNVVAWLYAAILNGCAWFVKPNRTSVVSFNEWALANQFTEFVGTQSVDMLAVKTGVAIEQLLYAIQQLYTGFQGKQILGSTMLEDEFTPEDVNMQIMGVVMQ

[1] = target: T2, recombinant M^pro of SARS-CoV-2 (Severe acute respiratory syndrome coronavirus 2, UniProt P0DTD1); assay: biochemical; assay type: binding
T2 construct: This main protease is located in nsp5; purchased Bio-Techne

SARS-CoV-2 = settings: cited from earlier work
[2] = system: human diploid MRC-5 lung fibroblasts; assay: Resazurin cell viability assay; settings: MRC-5; tested range 0.3–100 µM; 72 h
[3] = target: recombinant M^pro of SARS-CoV-1 (Severe acute respiratory syndrome coronavirus, UniProt P0C6X7); assay: biochemical; assay type: binding
[4] = target: recombinant M^pro of MERS-CoV (Middle East respiratory syndrome-related coronavirus, UniProt K9N7C7); assay: biochemical; assay type: binding
recombinant M^pro of MERS-CoV, sequence (K9N7C7 3248-3553 limits assumed): as above

hepatitis C virus (HCV) = settings: chronic HCV infection; oral doses of 0.05 and 0.10 mg/kg/d; cited from earlier work
[5] = system: human immunodeficiency virus (HIV); settings: orally administered, 0.5 mg/kg daily; limited number of patients; cited from earlier work
[6] = Resazurin cell viability assay; settings: human, MRC-5 lung fibroblasts

With `O=C(/C=C/c1ccc(O)c(O)c1)O[C@H](Cc1ccc(O)c(O)c1)C(=O)O` [Rosmarinic acid] the IC50 (SARS-CoV-2 M^pro) was 9.43 ± 0.46 µM, the “Percentage of activity of SARS-CoV-2 M^pro in the presence of compound” value (“Percentage” for short) (SARS-CoV-2 M^pro) was 8.28% and the inhibition at 100 µM (SARS-CoV-2 M^pro) was greater than 50%. It also gave an inhibition at 100 µM (SARS-CoV-1 M^pro) of 31%, an inhibition at 100 µM (MERS-CoV M^pro) of 14.9% and a Kd [1] of 15.5 ± 4.77 µM. For the same molecule, the “IC50 value, inhibition of SARS-CoV-2 replication” value (SARS-CoV-2) was 25.47 µg/mL and the “Inhibitory effect on cell viability” value [2] was “did not show significant inhibitory effects; also recorded: did not inhibit”.

In the case of `Cc1cc(O)c2c(=O)c3c(O)cc(O)c4c5c(O)cc(O)c6c(=O)c7c(O)cc(C)c8c1c2c(c34)c(c78)c65` [Hypericin], the IC50 (SARS-CoV-2 M^pro) is reported as 23.3 ± 1.21 µM, the “Percentage” value (SARS-CoV-2 M^pro) is reported as 4.95% and the “Therapeutic Index” value (SARS-CoV-2 M^pro) is reported as 2.38. For the same molecule, the inhibition at 100 µM (SARS-CoV-2 M^pro) was greater than 50%, the IC50 (SARS-CoV-1 M^pro) was 19.4 ± 3.11 µM and the “Therapeutic Index” value (SARS-CoV-1 M^pro) was 2.85. The IC50 (MERS-CoV M^pro) was 49.7 ± 5.41 µM, the “Therapeutic Index” value (MERS-CoV M^pro) was 1.11 and the Kd [1] was 7.73 ± 6.5 µM. For the same molecule, the Kd [3] was 25.5 ± 13.6 µM, the Kd [4] was 54.9 ± 13.8 µM and the “Anti-HCV activity in patients” value (hepatitis C virus (HCV)) was “without detectable anti-HCV activity”. For the same molecule, the “Antiretroviral activity in clinical trial” value [5] was “without antiretroviral activity”, the CC50 at 72 h [6] was 55.5 ± 2.2 µM and the “Inhibitory effect on cell viability” value [2] was “slight toxicity”.

With `O=c1cc(-c2ccc(O)c(O)c2)oc2cc(O)cc(O)c12` [Luteolin] the IC50 (SARS-CoV-2 M^pro) was 11.8 ± 1.27 µM, the “Percentage” value (SARS-CoV-2 M^pro) was 10.10% and the inhibition at 100 µM (SARS-CoV-2 M^pro) was greater than 50%. The inhibition at 100 µM (SARS-CoV-1 M^pro) was 44%, the inhibition at 100 µM (MERS-CoV M^pro) was 21.3% and the Kd [1] was 13.4 ± 2.7 µM.

With `COc1cc(-c2oc3cc(O)cc(O)c3c(=O)c2O)ccc1O` [Isorhamnetin] the IC50 (SARS-CoV-2 M^pro) was 8.42 ± 1.15 µM, the “Percentage” value (SARS-CoV-2 M^pro) was 8.56% and the “Therapeutic Index” value (SARS-CoV-2 M^pro) was 4.37. For the same molecule, the inhibition at 100 µM (SARS-CoV-2 M^pro) was greater than 50%, the IC50 (SARS-CoV-1 M^pro) was 13.1 ± 1.78 µM and the “Therapeutic Index” value (SARS-CoV-1 M^pro) was 2.8. It also gave an inhibition at 100 µM (MERS-CoV M^pro) of 26.3%, a Kd [1] of 4.37 ± 3.9 µM and a Kd [3] of 3.6 ± 2.6 µM. For the same molecule, the CC50 at 72 h [6] was 36.8 ± 3.4 µM and the “Inhibitory effect on cell viability” value [2] was “slight toxicity”.
